Test results as given in PubChem BioAssay AID2060904 (Molecular Pharmacology Branch, DTP, NCI, 2025).

Test system: 349418-098-R-PDC complex spheroid viability
Assay: Anticancer human tumor 349418-098-R-PDC patient-derived lung adenocarcinoma cell line growth inhibition [RAS]
Conditions: for IC50: curve of first compound; for viability, T/C: stronger effect = lower value
Summary of the method: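 Agents were tested in combination matrices in half-log decrements from a top concentration at or near clinical Cmax (10 microM if undetermined). Targets were multi-cell spheroids of tumour lines plus HUVEC and MSC stromal cells.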

[1] = second compound 0.0316 µM, first compound 0.0316 µM
[2] = second compound 0.0316 µM, first compound 0.1 µM
[3] = second compound 0.0316 µM, first compound 0.316 µM
[4] = second compound 0.0316 µM, first compound 1 µM
[5] = second compound 0.1 µM, first compound 0.0316 µM
[6] = second compound 0.1 µM, first compound 0.1 µM
[7] = second compound 0.1 µM, first compound 0.316 µM
[8] = second compound 0.1 µM, first compound 1 µM
[9] = second compound 0.316 µM, first compound 0.0316 µM
[10] = second compound 0.316 µM, first compound 0.1 µM
[11] = second compound 0.316 µM, first compound 0.316 µM
[12] = second compound 0.316 µM, first compound 1 µM
[13] = second compound 1 µM, first compound 0.0316 µM
[14] = second compound 1 µM, first compound 0.1 µM
[15] = second compound 1 µM, first compound 0.316 µM
[16] = second compound 1 µM, first compound 1 µM
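Further: spheroids exposed to compound for seven days before viability readout.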

In the case of `CCC(CC)c1cc(NC2CCC(N)C2)n2nccc2n1` (centres undefined) + C#Cc1c(F)ccc2cc(O)cc(-c3ncc4c(N5CC6CCC(C5)N6)nc(OCC56CCCN5CC(F)C6)nc4c3F)c12, the IC50 (second compound 0.0316 µM) is reported as 0.736 µM, the IC50 (second compound 0.1 µM) is reported as 0.81 µM and the IC50 (second compound 0.316 µM) is reported as 0.903 µM. It also gave an IC50 (second compound 1 µM) of 0.875 µM, an IC50 (second compound 3.16 µM) of 0.714 µM and an IC50 (second compound 10 µM) of under 0.0316 µM. For the same molecule, the viability, T/C [1] was 91.3%, the viability, T/C [2] was 106% and the viability, T/C [3] was 76.1%. For the same molecule, the viability, T/C [4] was 41.9%, the viability, T/C (second compound 0.0316 µM, first compound 3.16 µM) was 3.06% and the viability, T/C (second compound 0.0316 µM, first compound 10 µM) was 2.85%. It also gave a viability, T/C [5] of 84.2%, a viability, T/C [6] of 107% and a viability, T/C [7] of 84.5%. For the same molecule, the viability, T/C [8] was 42.6%, the viability, T/C (second compound 0.1 µM, first compound 3.16 µM) was 2.89% and the viability, T/C (second compound 0.1 µM, first compound 10 µM) was 2.86%. It also gave a viability, T/C [9] of 91.3%, a viability, T/C [10] of 112% and a viability, T/C [11] of 106%. It also gave a viability, T/C [12] of 44.8%, a viability, T/C (second compound 0.316 µM, first compound 3.16 µM) of 4.03% and a viability, T/C (second compound 0.316 µM, first compound 10 µM) of 2.72%. For the same molecule, the viability, T/C [13] was 75.8%, the viability, T/C [14] was 85.6% and the viability, T/C [15] was 67.2%. It also gave a viability, T/C [16] of 48.9%, a viability, T/C (second compound 1 µM, first compound 3.16 µM) of 3.08% and a viability, T/C (second compound 1 µM, first compound 10 µM) of 3.26%. The viability, T/C (second compound 3.16 µM, first compound 0.0316 µM) was 75%, the viability, T/C (second compound 3.16 µM, first compound 0.1 µM) was 97.5% and the viability, T/C (second compound 3.16 µM, first compound 0.316 µM) was 83.2%. The viability, T/C (second compound 3.16 µM, first compound 1 µM) was 36.1%, the viability, T/C (second compound 3.16 µM, first compound 3.16 µM) was 3.69% and the viability, T/C (second compound 3.16 µM, first compound 10 µM) was 3.11%. The viability, T/C (second compound 10 µM, first compound 0.0316 µM) was 52.5%, the viability, T/C (second compound 10 µM, first compound 0.1 µM) was 44.7% and the viability, T/C (second compound 10 µM, first compound 0.316 µM) was 42.7%. It also gave a viability, T/C (second compound 10 µM, first compound 1 µM) of 20.4%, a viability, T/C (second compound 10 µM, first compound 3.16 µM) of 1.26% and a viability, T/C (second compound 10 µM, first compound 10 µM) of 0.7%.
`O=C(c1ccc(F)c(F)c1Nc1ccc(I)cc1F)N1CC(O)([C@@H]2CCCCN2)C1` + C=CC(=O)N1CCN(c2nc(OCC3CCCN3C)nc3c(F)c(-c4nc(N)cc(C)c4C(F)(F)F)c(Cl)cc23)C(C)C1 showed an IC50 (second compound 0.00316 µM) of under 0.00316 µM, an IC50 (second compound 0.01 µM) of under 0.00316 µM and an IC50 (second compound 0.0316 µM) of under 0.00316 µM. It also gave an IC50 (second compound 0.1 µM) of under 0.00316 µM, an IC50 (second compound 0.316 µM) of under 0.00316 µM and an IC50 (second compound 1 µM) of under 0.00316 µM. It also gave a viability, T/C (second compound 0.00316 µM, first compound 0.00316 µM) of 39.9%, a viability, T/C (second compound 0.00316 µM, first compound 0.01 µM) of 32.3% and a viability, T/C (second compound 0.00316 µM, first compound 0.0316 µM) of 28.5%. For the same molecule, the viability, T/C (second compound 0.00316 µM, first compound 0.1 µM) was 12.9%, the viability, T/C (second compound 0.00316 µM, first compound 0.316 µM) was 5.88% and the viability, T/C (second compound 0.00316 µM, first compound 1 µM) was 4.12%. The viability, T/C (second compound 0.01 µM, first compound 0.00316 µM) was 37.7%, the viability, T/C (second compound 0.01 µM, first compound 0.01 µM) was 28.2% and the viability, T/C (second compound 0.01 µM, first compound 0.0316 µM) was 24.3%. It also gave a viability, T/C (second compound 0.01 µM, first compound 0.1 µM) of 13.2%, a viability, T/C (second compound 0.01 µM, first compound 0.316 µM) of 7.23% and a viability, T/C (second compound 0.01 µM, first compound 1 µM) of 4.54%. It also gave a viability, T/C (second compound 0.0316 µM, first compound 0.00316 µM) of 39%, a viability, T/C (second compound 0.0316 µM, first compound 0.01 µM) of 32.8% and a viability, T/C [1] of 28.5%. The viability, T/C [2] was 15.1%, the viability, T/C [3] was 6.99% and the viability, T/C [4] was 4.79%. It also gave a viability, T/C (second compound 0.1 µM, first compound 0.00316 µM) of 36.4%, a viability, T/C (second compound 0.1 µM, first compound 0.01 µM) of 33.6% and a viability, T/C [5] of 26.6%. It also gave a viability, T/C [6] of 13.5%, a viability, T/C [7] of 6.66% and a viability, T/C [8] of 4.97%. It also gave a viability, T/C (second compound 0.316 µM, first compound 0.00316 µM) of 29.1%, a viability, T/C (second compound 0.316 µM, first compound 0.01 µM) of 32.5% and a viability, T/C [9] of 32.4%. It also gave a viability, T/C [10] of 12%, a viability, T/C [11] of 7.61% and a viability, T/C [12] of 5.27%. The viability, T/C (second compound 1 µM, first compound 0.00316 µM) was 42.3%, the viability, T/C (second compound 1 µM, first compound 0.01 µM) was 38.8% and the viability, T/C [13] was 26.8%. It also gave a viability, T/C [14] of 16.4%, a viability, T/C [15] of 7.89% and a viability, T/C [16] of 5%.
In the case of `CC(Nc1ccc2c(c1)OCCn1cc(N3C(=O)OCC3C(F)F)nc1-2)C(N)=O` (centres undefined), the viability, T/C (compound 0.0316 µM) is reported as 75.9% [middle of 4 runs], the viability, T/C (compound 0.1 µM) is reported as 49.6% [middle of 4 runs] and the viability, T/C (compound 0.316 µM) is reported as 32% [middle of 4 runs]. The viability, T/C (compound 1 µM) was 21.9% [middle of 4 runs] and the viability, T/C (compound 10 µM) was 14.1% [middle of 4 runs].
